Article PMC6380468, “Investigations on small molecule inhibitors targeting the histone H3K4 tri-methyllysine binding PHD-finger of JmjC histone demethylases” (Bioorganic & Medicinal Chemistry, 2018)

What was measured:
KDM7B(PHD) = biological target: T1, KDM7B(PHD) (Homo sapiens, UniProt Q9UPP1); assay: AlphaScreen displacement of H3K4me3-Bn from His-KDM7B(PHD); format: binding; conditions: AlphaScreen; 12.5 nM protein and 12.5 nM peptide; n ≥ 3; read-out: IC50 for displacement of H3K4me3-Bn from His-KDM7B(PHD)
T1 construct: made in house
T1 sequence (Q9UPP1 41-92 limits assumed): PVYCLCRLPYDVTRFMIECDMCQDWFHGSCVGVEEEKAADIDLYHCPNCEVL
Procedure: (§1) For peptide displacement assays, 5 µL of the inhibitor dilution series (at a concentration of 4% DMSO in AlphaScreen assay buffer) was pre-incubated with 5 µL of the protein at RT for 15 minutes. Peptide solution (5 µL) was added and incubated for 30 minutes at RT, followed by the addition of 5 µL of a mixture of AlphaScreen Streptavidin donor beads and Nickel Chelate acceptor beads in AlphaScreen assay buffer (20 µg/mL final). The contents were incubated for 60-120 minutes at RT in the dark, followed by measurement of luminescence on a BMG Labtech Pherastar plate reader (Software Ver. 5.30 R3, Firmware Ver. 1.21). The data was plotted in Prism Ver 7.01 (GraphPad Software, Inc.) and fitted to a Log(inhibitor) v/s response – variable slope model in order to obtain IC50 values.

His-KDM5A(PHD3) = biological target: T2, His-KDM5A(PHD3) (Homo sapiens, UniProt P29375); assay: AlphaScreen displacement assay, H3K4me3-Bn from His-KDM5A(PHD3); format: binding; conditions: AlphaScreen; 25 nM protein and 25 nM peptide; average ± StdDev, n ≥ 3; NM = not measurable within the solubility range; read-out: IC50 for displacement of H3K4me3-Bn from His-KDM5A(PHD3)
T2 construct: KDM5A(PHD3) (1542 – 1660), encoded by a pGTLV2 vector; made in house; host or cells: E. coli Rosetta 2(DE3)pLysS
T2 sequence (P29375 1542-1660): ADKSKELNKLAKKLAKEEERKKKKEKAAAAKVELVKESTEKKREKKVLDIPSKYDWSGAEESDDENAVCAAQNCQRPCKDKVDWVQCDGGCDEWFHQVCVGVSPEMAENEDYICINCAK
Procedure: AlphaScreen is a homogenous bead-based assay used to study protein-protein interactions.[28] […] AlphaScreen beads were then added and incubated for 1 h. Changes in the AlphaScreen signals with increasing inhibitor concentrations were then measured to quantify the level of KDM5A(PHD3) and H3K4me3 binding, and IC50 values were determined.
His-tagged PHD finger constructs and H3K4me3-Bn peptides were diluted into AlphaScreen assay buffer (50mM HEPES, 150mM NaCl, 0.1% BSA, 0.01% Tween20, pH 7.5). An 8-point 1:2 dilution series was made for both protein and peptide. With a multichannel pipette (LTS P10), 5 µL protein was dispensed into 8 columns of a 384-well plate, followed by 5 µL of 4% DMSO in AlphaScreen assay buffer. The mixture was incubated at room temperature for 15 minutes, followed by dispensing 5 µL peptide across 8 rows of the 384-well plate, forming a cross-gradient of protein and peptide. The contents were incubated for 30 minutes at room temperature, followed by the addition of 5 µL of a mixture of AlphaScreen Streptavidin donor beads and Nickel Chelate acceptor beads in AlphaScreen assay buffer (20 µg/mL final). The samples were incubated for 60-120 minutes at room temperature in the dark, followed by measurement of luminescence on a BMG Labtech Pherastar plate reader (Software Ver. 5.30 R3, Firmware Ver. 1.21). The data was plotted in Prism Ver 7.01 (GraphPad Software, Inc.) and fitted to a linear model in order to determine the optimal concentration of protein and peptide within the linear signal range for each reader domain.
as §1

KDM5A_c1 (M1-L801) = biological target: T3, KDM5A_c1 (M1-L801) (Homo sapiens, UniProt P29375); assay: MALDI-TOF MS H3K4me3 demethylation assay, KDM5A_c1; format: biochemical; conditions: average ± StdDev of n = 2, read-out: IC50, inhibition of H3K4me3 demethylation activity, KDM5A_c1
T3 construct: made in house
T3 sequence (P29375 1-801): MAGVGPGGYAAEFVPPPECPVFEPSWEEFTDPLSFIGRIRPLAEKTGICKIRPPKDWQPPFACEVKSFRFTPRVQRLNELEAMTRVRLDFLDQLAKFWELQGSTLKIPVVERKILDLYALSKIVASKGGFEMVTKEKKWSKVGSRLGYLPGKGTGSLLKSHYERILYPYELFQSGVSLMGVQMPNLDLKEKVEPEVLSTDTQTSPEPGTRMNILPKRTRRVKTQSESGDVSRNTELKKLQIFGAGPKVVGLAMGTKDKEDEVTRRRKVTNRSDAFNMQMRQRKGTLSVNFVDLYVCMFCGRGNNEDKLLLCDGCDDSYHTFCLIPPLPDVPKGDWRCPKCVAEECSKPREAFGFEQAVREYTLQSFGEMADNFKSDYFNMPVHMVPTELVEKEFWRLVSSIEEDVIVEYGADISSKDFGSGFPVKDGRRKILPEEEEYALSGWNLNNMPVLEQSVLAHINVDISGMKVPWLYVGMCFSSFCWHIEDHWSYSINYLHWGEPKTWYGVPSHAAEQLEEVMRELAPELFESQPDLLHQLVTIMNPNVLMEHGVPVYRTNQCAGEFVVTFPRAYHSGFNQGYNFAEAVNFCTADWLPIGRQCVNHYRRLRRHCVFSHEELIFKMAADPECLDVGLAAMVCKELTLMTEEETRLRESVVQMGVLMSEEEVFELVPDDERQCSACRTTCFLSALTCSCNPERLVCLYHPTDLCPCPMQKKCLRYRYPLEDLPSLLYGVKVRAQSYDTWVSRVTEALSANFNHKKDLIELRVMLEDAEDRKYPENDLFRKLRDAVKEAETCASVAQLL
Procedure: Two catalytically active constructs of KDM5A were employed, KDM5A_c1 (M1-L801) and KDM5A_c2 (ΔARID/PHD1, P13-S744 with L88-G353 (ARID/PHD1) replaced with a GGGG linker) and both KDM5A_c1 and KDM5A_c2 constructs lack the PHD2 and PHD3. […] A MALDI-TOF MS assay was used to measure the activity of H3K4me3 demethylation in the presence of inhibitors (Table 2, Fig. 3C and D).
The KDM5A mixture (5 µL, KDM5A-c1: 1.0 µM or KDM5A-c2: 0.5 µM) was pre-incubated with 100 nL inhibitors (in DMSO) for 10 min. […] The mixture was quenched using formic acid (5 µL, 1 v/v% in MQ) after 4 minutes (KDM5A-c1) or 3 minutes (KDM5A-c2). The stopped reaction (1 µL) was mixed with […] (CHCA) MALDI matrix (saturated solution in TFA (0.1%) in MilliQ water and trifluoroacetic acid (0.1%) acetonitrile (1:1)) at 1:1 ratio (2 µL), air dried and analysed using Bruker microflex MALDI-TOF controlled with FlexControl. The data were further processed using FlexAnalysis and excel.

[1] = AlphaScreen biotin-His6 counterscreen; conditions: AlphaScreen interference counterscreen with biotin-His6; unit inferred; DNC = data did not converge to binding model; NM = not measurable within the solubility range

CCCCc1oc2ccccc2c1C(=O)c1ccc(OCCCN(C)C)cc1 [Compound 1a, (2-Butylbenzofuran-3-yl)(4-(3-(dimethylamino)propoxy)phenyl)methanone]
IC50 (KDM7B(PHD)): 397 ± 77 µM | IC50 (His-KDM5A(PHD3)): 166 ± 20 µM | IC50 (KDM5A_c1 (M1-L801)): > 1000 µM | IC50 [1]: 484 ± 82 µM

CCCCc1oc2ccccc2c1C(=O)c1ccc(OCCC[N+](C)(C)C)cc1.[I-] [Compound 2a, 3-(4-(2-Butylbenzofuran-3-carbonyl)phenoxy)-N,N,N-trimethylpropan-1-aminium iodide]
IC50 (KDM7B(PHD)): 355 ± 39 µM | IC50 (His-KDM5A(PHD3)): 340 ± 44 µM | IC50 (KDM5A_c1 (M1-L801)): 80 ± 29 µM | IC50 [1]: 4300 ± 163 µM
